The results in this text go back to ChEMBL document CHEMBL5137011, “Semisynthetic pleuromutilin antimicrobials with therapeutic potential against methicillin-resistant Staphylococcus aureus by targeting 50S ribosomal subunit” (Eur J Med Chem, 2022).

pKd: −log10 of the molar value. ≈ marks a conversion by molar mass, not a printed value.

The subject of series [1] is Staphylococcus aureus. The series can be described thus: Antibacterial activity against methicillin-resistant Staphylococcus aureus ATCC 43300 assessed as inhibition of bacterial growth incubated for 16 hrs by CLSI based broth microdilution method. Type of series: functional.
For series [2], the system named is Staphylococcus aureus. Briefly: Antibacterial activity against Staphylococcus aureus ATCC 29213 assessed as inhibition of bacterial growth incubated for 16 hrs by CLSI based broth microdilution method. Type of series: functional.
Series [3] has as its system 16HBE14o-. The series can be described thus: Cytotoxicity against human 16HBE14o- cells assessed as reduction in cell viability at 8 ug/ml incubated for 16 hrs by MTT assay relative to control. Type of series: toxicity, cell-based. As to conditions: at 8 µg/mL.
Series [4] concerns Staphylococcus aureus. The series can be described thus: Antibacterial activity against Staphylococcus aureus 144 assessed as inhibition of bacterial growth incubated for 16 hrs by CLSI based broth microdilution method. Type of series: functional.
Series [5] concerns Staphylococcus aureus. Briefly: Antibacterial activity against Staphylococcus aureus SA17 assessed as inhibition of bacterial growth incubated for 16 hrs by CLSI based broth microdilution method. Type of series: functional.
Series [6] deals with Staphylococcus aureus. Briefly: Antibacterial activity against Staphylococcus aureus AD3 assessed as inhibition of bacterial growth incubated for 16 hrs by CLSI based broth microdilution method. Type of series: functional.
In series [7] the test system is RAW264.7. Briefly: Cytotoxicity against mouse RAW264.7 cells assessed as reduction in cell viability at 8 ug/ml incubated for 16 hrs by MTT assay. Conditions: raw264.7, 16 h, dose 8 µg/ml. Type of series: toxicity, cell-based.
Series [8] has as its system Staphylococcus aureus. Briefly: Antibacterial activity against methicillin-resistant Staphylococcus aureus ATCC 43300 infected in ICR/Swiss mouse […] thigh infection model assessed as log reduction in bacterial load in thigh at 20 mg/kg, iv administered as bolus injection measured after 24 hrs. Type of series: functional.
Series [9] has as its system Staphylococcus aureus. Briefly: Antibacterial activity against methicillin-resistant Staphylococcus aureus ATCC 43300 infected in ICR/Swiss mouse systemic infection model assessed as survival rate at 30 mg/kg, iv administered as bolus injection 1 hr post infection measured twice daily after 2 to 7 days. Type of series: functional. Conditions: time 2-7 day.
Series [10] deals with Bacterial 70S ribosome (Bacteria) (UniProt P0A7V0+P60723+P0AG67+P0A7R5+P0A7R9+P0A7S3+P0A7S9+P0AG59+P0ADZ4+P0A7T3+P0AG63+P0A7T7+P0A7U3+P0A7U7+P68679+P0A7V3+P0A7V8+P0A7W1+P02358+P02359+P0A7W7+P0A7X3+P0A7J3+P0A7J7+P0AA10+P0ADY3+P02413+P0ADY7+P0AG44+P0C018+P0A7K6+P0A7L0+P0A7L3+P0AG48+P61175+P0ADZ0+P60624+P68919+P0A7L8+P0A7M2+P0A7M6+P60422+P0AG51+P0A7N1+P0A7M9+P0A7N4+P0A7N9+P0A7P5+P0A7Q1+Q2EEQ2+P0A7Q6+P60438+P62399+P0AG55+P0A7K2). Briefly: Binding affinity to Staphylococcus aureus ATCC 43300 50S ribosomal subunit assessed as association rate constant by surface plasmon resonance analysis. Type of series: subcellular.

Series [11] addresses Bacterial 70S ribosome. The series can be described thus: Binding affinity to Staphylococcus aureus ATCC 43300 50S ribosomal subunit assessed as equilibrium dissociation constant by surface plasmon resonance analysis. Type of series: subcellular.
Series [12] has as its system 16HBE14o-. Briefly: Cytotoxicity against human 16HBE14o- cells assessed as reduction in cell viability at 8 ug/ml incubated for 16 hrs by MTT assay. Type of series: toxicity, cell-based. Conditions: dose 8 µg/ml.
The subject of series [13] is Staphylococcus aureus. Briefly: Antibacterial activity against methicillin-resistant Staphylococcus aureus ATCC 43300 assessed as log reduction in colony forming unit at 4 times MIC measured after 24 hrs by time kill assay. Type of series: functional.
The subject of series [14] is Staphylococcus aureus. The series can be described thus: Antibacterial activity against methicillin-resistant Staphylococcus aureus ATCC 43300 assessed as log reduction in colony forming unit at 4 times MIC measured after 3 hrs by time kill assay. Type of series: functional.
The test system of series [15] is Staphylococcus aureus. Briefly: Antibacterial activity against methicillin-resistant Staphylococcus aureus ATCC 43300 infected in ICR/Swiss mouse systemic infection model assessed as survival rate at 30 mg/kg, iv administered as bolus injection 1 hr post infection measured twice daily after 3 to 7 days. Type of series: functional. Conditions: time 3-7 day.
The nature of series [16]: MRT in mouse at 10 mg/kg, iv administered as bolus infection measured upto 24 hrs by LC-MS analysis. Conditions: in vivo. Type of series: ADME, organism-based.
Series [17] is described as follows: Half life in mouse at 10 mg/kg, iv administered as bolus infection measured upto 24 hrs by LC-MS analysis. Type of series: ADME, organism-based. As to conditions: in vivo.
Series [18] is described as follows: Clearance in mouse at 10 mg/kg, iv administered as bolus infection measured upto 24 hrs by LC-MS analysis. Type of series: ADME, organism-based. As to conditions: in vivo.
The nature of series [19]: Clearance in mouse assessed as hepatic blood flow at 10 mg/kg, iv administered as bolus infection measured upto 24 hrs by LC-MS analysis. Type of series: ADME, organism-based. Conditions: in vivo.
Series [20] is described as follows: AUC(0 to infinity) in mouse at 10 mg/kg, iv administered as bolus injection measured upto 24 hrs by LC-MS analysis. Type of series: ADME, organism-based. Set-up: time < 24 hrs, dose 10 mg/kg, route iv. As to conditions: in vivo.
Series [21] in a line: AUC(0 to t) in mouse at 10 mg/kg, iv administered as bolus injection measured upto 24 hrs by LC-MS analysis. Type of series: ADME, organism-based. The arrangement: dose 10 mg/kg, time < 24 hrs, route iv. Conditions: in vivo.

For the compound `C=C[C@]1(C)C[C@@H](OC(=O)CSc2nnc(-c3cccc(C(F)(F)F)c3)[nH]2)[C@]2(C)[C@H](C)CC[C@]3(CCC(=O)[C@H]32)[C@@H](C)[C@@H]1O`, the minimum inhibitory concentration (MIC) was 1 mg/L (≈ 1.65 µM) in [1]; 2 mg/L (≈ 3.3 µM) in [2]; above 32 mg/L in series [4]; above 32 mg/L in series [5]; 0.25 mg/L (≈ 0.413 µM) in series [6]. Besides, the Activity in series [3] is above 50%; in [7], “Non-Toxic”.
`C=C[C@]1(C)C[C@@H](OC(=O)CSCCN(CC)CC)[C@]2(C)[C@H](C)CC[C@]3(CCC(=O)[C@H]32)[C@@H](C)[C@@H]1O` [TIAMULIN]: in [8], the Activity is given as -1.1 log10CFU/ml. Moreover, in [9], the survival at 30 mg/kg turned out to be 30%. Moreover, the MIC in series [1] worked out at 0.5 mg/L (≈ 1.01 µM); in series [2] it was 0.5 mg/L (≈ 1.01 µM); in series [4], 1 mg/L (≈ 2.03 µM); in series [5], 1 mg/L (≈ 2.03 µM); in series [6], 0.5 mg/L (≈ 1.01 µM). Moreover, the Ka in series [10] was 1.22 10^2/Ms. In series [11], the negative logarithm of the Kd (pKd) is 7.44.
Turning to `C=C[C@]1(C)C[C@@H](OC(=O)CSc2nnc(-c3ccccc3OC)[nH]2)[C@]2(C)[C@H](C)CC[C@]3(CCC(=O)[C@H]32)[C@@H](C)[C@@H]1O`, the Activity in series [8] was -1.27 log10CFU/ml; in series [12] it was “Non-Toxic”; in series [13], -7.1 log10CFU/ml; in series [14], -1.53 log10CFU/ml; in series [7], “Non-Toxic”. Also, the MIC in series [1] was found to be 0.0625 mg/L (≈ 0.11 µM); in series [2], 0.125 mg/L (≈ 0.22 µM); in series [4], 0.125 mg/L (≈ 0.22 µM); in [5] it was 0.125 mg/L (≈ 0.22 µM); in [6], 0.0625 mg/L (≈ 0.11 µM). Also, the Ka in series [10] was 4.99 10^2/Ms. In addition, the pKd in [11] was 3.92.
With `C=C[C@]1(C)C[C@@H](OC(=O)CSc2nnc(-c3ccccc3F)[nH]2)[C@]2(C)[C@H](C)CC[C@]3(CCC(=O)[C@H]32)[C@@H](C)[C@@H]1O`, in series [15], the survival at 30 mg/kg stood at 50%. In addition, the Activity is listed as -1.53 log10CFU/ml in [8]; “Non-Toxic” in [12]; -7.7 log10CFU/ml in series [13]; -1.66 log10CFU/ml in series [14]; “Non-Toxic” in series [7]. This compound displayed a mean residence time (MRT) in [16] of 93.6 min. For the same compound, the MIC in [1] came to 0.0625 mg/L (≈ 0.112 µM); in [2], 0.125 mg/L (≈ 0.225 µM); in [4] it was 0.25 mg/L (≈ 0.45 µM); in series [5], 0.125 mg/L (≈ 0.225 µM); in series [6], 0.03 mg/L (≈ 0.054 µM). In [17], the t1/2 came to 22.2 min. In [18], this compound gave a clearance of 5.43 L/h/kg. For the same compound, in series [19], the QH turned out to be 5.4 L/h/kg. This compound registered a total exposure AUC(0-inf) in series [20] of 1.84 µg·h/mL. Further, the Ka in series [10] is 1.04 10^3/M.s. The pKd in [11] was 5.71. For the same compound, the AUC(0-t) at 24 h in series [21] came out at 1.83 µg·h/mL.
As for `C=C[C@]1(C)C[C@@H](OC(=O)CSc2nnc(-c3ccc(C(F)(F)F)cc3)[nH]2)[C@]2(C)[C@H](C)CC[C@]3(CCC(=O)[C@H]32)[C@@H](C)[C@@H]1O`, the MIC was 0.5 mg/L (≈ 0.825 µM) in [1]; 2 mg/L (≈ 3.3 µM) in series [2]; above 32 mg/L in series [4]; above 32 mg/L in [5]; 0.25 mg/L (≈ 0.413 µM) in series [6]. For the same compound, the Activity was above 50% in series [3] and “Non-Toxic” in series [7].
